PMC9926489, “Chemical Optimization of Selective Pseudomonas aeruginosa LasB Elastase Inhibitors and Their Impact on LasB-Mediated Activation of IL-1β in Cellular and Animal Infection Models” (ACS Infectious Diseases, 2023)

Legend:
LasB WT (PAO1 reference) = target: T1, LasB WT (PAO1 reference) (Pseudomonas aeruginosa, UniProt P14756); assay: LasB variant inhibition, Abz-AGLA-Nba assay with culture supernatant: WT; format: biochemical, P. aeruginosa
T1 construct: endogenous in cells; host or cells: P. aeruginosa strains of WT lasB genotype, culture supernatant
T1 sequence (P14756 198-498): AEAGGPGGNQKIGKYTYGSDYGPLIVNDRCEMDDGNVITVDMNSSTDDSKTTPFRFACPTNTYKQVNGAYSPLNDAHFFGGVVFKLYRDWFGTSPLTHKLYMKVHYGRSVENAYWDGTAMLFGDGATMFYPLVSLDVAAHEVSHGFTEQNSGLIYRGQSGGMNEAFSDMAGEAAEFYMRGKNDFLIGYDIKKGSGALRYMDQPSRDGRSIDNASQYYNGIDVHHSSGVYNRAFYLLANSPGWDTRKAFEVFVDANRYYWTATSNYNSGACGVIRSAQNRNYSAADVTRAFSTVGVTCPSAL
Text: (§1) Compounds 12 and 16 were discovered as a result of optimizing potency against the LasB protein expressed from the wild-type (WT) reference strain P. aeruginosa PAO1. To understand the relative prevalence of the WT LasB protein versus other variants in clinical respiratory P. aeruginosa strains, the full-length lasB gene was amplified by PCR from 255 clinical isolates (obtained from CF sputum samples). […] Most changes were identified in the mature peptide, however some occurred in the propeptide domain, which could affect LasB processing (marked in italics in Table 4).
(§2) LasB inhibition assays were performed using purified LasB enzyme (1 ng/well) for compound screening or using culture supernatants (prepared as described in the ECR assay) for testing LasB variants. Hydrolysis of the fluorogenic peptide substrate 2-aminobenzoyl-Ala-Gly-Leu-Ala-4-nitrobenzylamide (Abz-AGLA-Nba; Peptide International) in 50 mM Tris-HCl (pH 7.4), supplemented with 2.5 mM CaCl2 was followed using an Envision microplate reader (PerkinElmer) at 315 nm excitation and 430 nm emission. […] IC50 values were determined from Hill plots using Dotmatics Studies ELN software. For the mechanism of inhibition studies, hydrolysis rates were measured in the presence of variable concentrations of substrate and inhibitor, and the inhibition constant (Ki) was determined using Dixon plot analysis.[31]

LasB T65I = target: T2, LasB T65I (Pseudomonas aeruginosa, UniProt P14756); assay: LasB variant inhibition, culture supernatant: T65I; format: biochemical, P. aeruginosa
T2 construct: endogenous in cells; host or cells: P. aeruginosa clinical CF isolate, culture supernatant
T2 sequence (P14756 198-498, stated change not applied): as the sequence (P14756 198-498) above
Text: as §1, §2

[1] = target: T3, secreted LasB in P. aeruginosa PAO1-infected THP-1 macrophages (Pseudomonas aeruginosa, UniProt P14756); assay: LasB activity (Sub115 hydrolysis) in supernatants of P. aeruginosa-infected THP-1 macrophages; format: cell-based; conditions: PAO1-infected THP-1 macrophages, 2 h, inhibitor at 4 μM
T3 construct: The mature LasB protein is a 33 kDa metalloprotease, which is secreted from P. aeruginosa; endogenous in cells; host or cells: P. aeruginosa PAO1 infecting human THP-1 macrophages (MOI 10:1); supernatant after 2 h
T3 sequence (P14756 198-498): as above
Method: (§3) Further to showing in vitro inhibition of LasB-mediated pro-IL-1β proteolysis, experiments were performed to determine the effect of compounds 12 and 16 on IL-1β activation and functionality in human macrophage cell cultures infected with P. aeruginosa PAO1, or an isogenic lasB deletion mutant thereof (ΔlasB). In these experiments, the levels of LasB activity in culture supernatants were measured via hydrolysis of the Sub115 fluorescent peptide, while the effect of LasB activity on IL-1β activation (functionality) was measured using a luciferase reporter cell line sensitive to IL-1β induction (Figure 3).
Human THP-1 macrophages were cultured by conventional methods then, pre-infection, culture media were replaced by RPMI lacking phenol red and antibiotics. Compounds VX-765 (caspase-1 inhibitor, developed by Vertex) and/or LasB inhibitors were added, immediately followed by inoculation with P. aeruginosa PAO1 or an isogenic lasB deletion mutant (ΔlasB), previously grown in Luria broth to late exponential phase (OD600 = 1.2) then washed and diluted in PBS, at a multiplicity of infection (MOI) of 10 to 1. After 2 h post-infection, 50 μL aliquots of supernatant were removed and used to quantitate both LasB activity and IL-1β functionality. To determine LasB activity, 50 μL of supernatant was added to Sub115 IL-1β peptide and hydrolysis of Sub115 was monitored spectrophotometrically with excitation at 355 nm and emission at 450 nm, as described above. Results were expressed as relative fluorescence units (RFU).
In the first variation, experimental infections were performed with P. aeruginosa PAO1 and ΔlasB bacteria incubated with varying quantities of inhibitor at final concentrations ranging from 0.5 to 8 μM. In the second, cells were treated and infected in the same manner and also treated with 5 μM VX-765 to provide a control for IL-1β activation by the inflammasome pathway.

IL-1β activation = IL-1β activation in P. aeruginosa-infected THP-1 macrophages (HEK IL-1R-lux reporter assay); format: cell-based, human; conditions: Homo sapiens; PAO1-infected THP-1 macrophages, IL-1 reporter assay; read-out: EC50, decrease in IL-1β activation
Method: as §3
Human THP-1 macrophages were cultured by conventional methods then, pre-infection, culture media were replaced by RPMI lacking phenol red and antibiotics. […] After 2 h post-infection, 50 μL aliquots of supernatant were removed and used to quantitate both LasB activity and IL-1β functionality. To determine LasB activity, 50 μL of supernatant was added to Sub115 IL-1β peptide and hydrolysis of Sub115 was monitored spectrophotometrically with excitation at 355 nm and emission at 450 nm, as described above. Results were expressed as relative fluorescence units (RFU).
To determine IL-1β functionality, generation of an IL-1 signal was quantified by adding 50 μL of supernatant to HEK IL-1R-lux reporter cells cultured in RPMI supplemented with 5% heat-inactivated FBS, 200 μg/mL penicillin/streptomycin, 200 μg/mL hygromycin, 100 μg/mL zeomycin, and 0.5 μg/mL puromycin. No bacteria survived in this antibiotic condition; 18 h post-treatment, IL-1β-dependent luciferase induction was assayed by luminescence measured with D-luciferin substrate (Steady-Luc, Biotium) on a multimode reader (PerkinElmer) and expressed as relative luminescence units (RU), as previously described.[16]
In the first variation, experimental infections were performed with P. aeruginosa PAO1 and ΔlasB bacteria incubated with varying quantities of inhibitor at final concentrations ranging from 0.5 to 8 μM. […]

activated IL-1β = assay: Mouse P. aeruginosa lung infection model, activated IL-1β in lung homogenates; format: in vivo; conditions: C57Bl/6 mice, 10 and 30 mg/kg IV at 1 and 4 h post-infection, 24 h; p < 0.0001
Method: To investigate if compounds 12 and 16 were able to engage the LasB target in vivo, in the context of a P. aeruginosa lung infection, and to determine the consequences of that inhibition, immunocompetent C57Bl/6 mice were infected intranasally with P. aeruginosa PAO1 and treated with two doses of inhibitors, 10 and 30 mg/kg, administered IV at 1 and 4 h post-infection (Figure 5A). A control group of PAO1-infected animals treated with vehicle and a group of animals infected with the isogenic ΔlasB strain were included in the study. Mice were euthanized 24 h post-infection and their lung homogenates assayed for activated mature IL-1β (using the IL-1 reporter assay) and bacterial numbers (by CFU enumeration).
Infection experiments were approved by the Institutional Animal Care and Use Committee of Emory University. To prepare the bacterial inoculum, P. aeruginosa PAO1 (or its ΔlasB derivative) was grown in Luria broth with shaking at physiologic (37 °C) temperature for 18 h to maximally express LasB (at late log phase). […] Active IL-1β was quantified by adding 100 μL of cell-free homogenate to IL-1β responsive HEK IL-1R-lux reporter cells. Activity was assayed by luminescence measured with D-luciferin substrate (Steady-Luc, Biotium) on a multimode reader (PerkinElmer) and expressed as relative luminescence units (RU). […] Statistics were calculated by ANOVA with a Dunnett post-test.

Structure (SMILES)	IC50 (LasB WT (PAO1 reference))	IC50 (LasB T65I)	LasB activity in culture supernatant (Sub115 hydrolysis) [1]	EC50 (IL-1β activation)	decrease in activated IL-1β in lung homogenates vs PAO1-infected control group (activated IL-1β)
COc1cc2sc(CNC(=O)C3(CC(=O)O)Cc4cc(F)c(F)cc4C3)nc2cc1OCCC[N+](C)(CCO)CCO [Compound 16]	177 nM	182 nM	complete abolition of activity	~500 nM	up to 4 fold
COc1cc2sc(CNC(=O)C3(CC(=O)O)Cc4ccccc4C3)nc2cc1OCCC[N+](C)(C)C [Compound 12]	222 nM	216 nM	complete abolition of activity	~500 nM	up to 4 fold
